Test results reported in the METLIN SMRT retention time set (Domingo-Almenara et al. 2019).

Test: gradient 5% acetonitrile 3 min, to 50% in 2 min, to 85% in 15 min, held 3 min, 100 µL/min
Settings: column: Zorbax Extend-C18 2.1 x 50 mm; eluents: water / acetonitrile, 0.1% formic acid
Summary of the method: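 Retention time was recorded from adduct peaks, which were picked computationally and each inspected manually. Pure standards ran in mixtures of ~100 molecules on HPLC coupled to a quadrupole time-of-flight mass spectrometer, in positive and negative ionization mode, through a Zorbax Extend-C18 column (2.1 × 50 mm, 1.8 μm) at 100 μL/min. Eluents were water and acetonitrile, each with 0.1% formic acid.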

Row | SMILES | RP-LC retention time [s]
1 | CSc1nnc(-c2nn(C)c3c2CN(C(=O)c2c(F)cccc2F)CC3)n1C | 695
2 | C=CCN1CCN(c2nc3cc(C(=O)OC)ccc3c(=O)n2-c2cccc(Cl)c2)CC1 | 681
3 | Cc1ccc(-c2noc(-c3cccc(S(=O)(=O)N4CCN(C)CC4)c3)n2)cc1 | 735
4 | O=C(NC1CCCCC1)c1nc(Nc2ccc(F)cc2)c2ccccc2n1 | 883
5 | CCn1c(=O)c(N2CCN(C(=O)Nc3ccc(F)cc3F)CC2)nc2ccccc21 | 895
6 | COC(=O)c1ccccc1NS(=O)(=O)c1ccc(Br)cc1 | 1030
7 | CN1c2ccc(Cl)cc2C(=O)NC12CCN(C(=O)NCc1ccccc1)CC2 | 789
8 | Cc1cccc(-c2nc3ccccn3c2NC(=O)Nc2ccccc2F)c1 | 695
9 | COc1ccccc1C(CNC(=O)c1cc(=O)c2cc(Cl)ccc2o1)N(C)C (stereo not drawn) | 647
10 | CCOC(=O)c1c(-c2cccnc2)n(C)c2cc(-c3cccnc3)c(OC)cc12 | 634
11 | Brc1ccccc1Cc1nc(-c2ccn3cnnc3c2)no1 | 806
12 | O=C(Nc1ccc(F)cc1)OC1CCCC(NC(=O)c2ccc(Br)o2)C1 (stereo not drawn) | 853
13 | CC(C)C(=O)Nc1ccc2nc(N3CCN(CC(=O)N4CCCC4)CC3)cc(C(=O)O)c2c1 | 561
14 | CCn1nc(C(=O)Nc2nnc(-c3cc4ccccc4o3)o2)cc1C | 770
15 | CC(=O)N1CCC([C@@H]2CN(C(=O)C3(C)CCCCC3)C[C@H]2CO)CC1 | 631
16 | CC(C)CC(=O)NCC1Cn2cccc2C(=O)N1C (stereo not drawn) | 620
17 | CCCn1cc(C(=O)N2CCOCC2)c2cccnc21 | 640
18 | CCOc1ccccc1NC(=O)C1CCN(S(=O)(=O)c2ccc3c(c2)NC(=O)C(C)O3)CC1 (stereo not drawn) | 897
19 | O=C(Nc1ccc2c(c1)OCO2)N1CCN(c2nc3ccccc3n(Cc3ccccc3)c2=O)CC1 | 1010
20 | O=C(CN1C(=O)CCC1=O)Nc1cccc(NC(=O)CN2C(=O)CCC2=O)c1 | 692
21 | CN(C)C(=O)CSc1nnc(-c2ccc3c(c2)OCCCO3)n1C1CC1 | 676
22 | O=C(CN1C(=O)C2CCCCN2c2ccc(S(=O)(=O)N3CCCC3)cc21)NCC1COCCO1 (stereo not drawn) | 736

Row | SMILES | RP-LC retention time [s]
23 | O=C(NCCS(=O)(=O)N1CCN(c2cccc(Cl)c2)CC1)c1cc2ccccc2o1 | 941
24 | COc1ccccc1C1(CNC(=O)Nc2ccccc2F)CCOCC1 | 810
25 | COc1cc(CN(CC2CCCO2)C(=O)c2ccc(F)cc2)cc(OC)c1OC (stereo not drawn) | 834
26 | Cc1nnc(-c2ccc3ccn(CC(=O)NCCC(C)C)c3c2)o1 | 754
27 | O=C(Cc1ccccc1Cl)NC1CCN(c2ccc(=O)n(CC3CC3)n2)C1 (stereo not drawn) | 760
28 | CCOc1ccc(/C=C/C(=O)Nc2nc(-c3ccc(C)cc3)c(C)s2)cc1 | 726
29 | CCN1c2ccccc2C(=O)NC12CCN(C(=O)c1ccc(F)cc1)CC2 | 756
30 | COc1ccccc1N1CCN(c2cc(SCC(=O)NC3CCCCC3)ncn2)CC1 | 875
31 | O=C(c1ccc(Br)o1)N1CCc2nc(-c3ccc(Cl)cc3)ncc2C1 | 1100
32 | O=C(OCc1ccc([N+](=O)[O-])cc1)c1ccc(S(=O)(=O)NCC2CCCO2)cc1 (stereo not drawn) | 870
33 | CCn1cc(S(=O)(=O)N2C[C@@H](COC)[C@H](C(=O)NC)C2)cn1 | 603
34 | COc1ccc(NC(=O)c2cnc(N3CCN(CC(=O)N4CCCC4)CC3)nc2N)cc1 | 586
35 | CCC(C)(C)NC(=O)CN1C(=O)CCCc2cc(S(=O)(=O)N3CCC(C)CC3)ccc21 | 963
36 | CCc1ccc(-c2noc(Cn3c(=O)n(-c4cccc(C)c4)c(=O)c4sccc43)n2)cc1 | 1150
37 | CC(C)c1nncn1C1CCN(S(=O)(=O)Cc2ccc(Cl)cc2)CC1 | 742
38 | O=C(Nc1ccc(Cl)cc1)N1CCC(N2CCN(Cc3ccc(F)cc3)C(=O)C2=O)CC1 | 799
39 | CC1CCCN(S(=O)(=O)c2cccc(-c3cn4cc(Cl)ccc4n3)c2)C1 (stereo not drawn) | 999
40 | O=C(Cn1cnc2nc(N3CCC(C(=O)NC4CC4)CC3)sc2c1=O)NC1CCCCC1 | 649
41 | CCc1nn2c(CNS(=O)(=O)c3ccc(Cl)cc3)c(-c3ccccc3)nc2s1 | 1000
42 | CCOC(=O)N1CCN(c2nc(F)c3c(c2F)S(=O)(=O)CCN3Cc2cccnc2)CC1 | 636
43 | Cn1ncc(NC(=O)c2ccccc2F)c(N2CCOCC2)c1=O | 777
44 | CC1=C(c2ccccc2)S(=O)(=O)N=C1N1CCCN(C(=O)c2cccc(C#N)c2)CC1 | 777

Row | SMILES | RP-LC retention time [s]
45 | CCOc1ccc(CN2C[C@@H](CO)[C@H](c3ccncc3)C2)cc1OCC | 556
46 | CC(C)c1ccc(C(=O)NCC(=O)Nc2nc3ccccc3[nH]2)cc1 | 688
47 | O=C(C1CC(=O)N(c2n[nH]c3ccccc23)C1)N1CCC(c2nc3ccccc3[nH]2)CC1 (stereo not drawn) | 591
48 | Cc1ncsc1CN1CCC(Cc2ncc(C)n2Cc2ccccc2)C1 (stereo not drawn) | 550
49 | COc1ccc(OC)c(NC(=O)c2cc(C)n(CCN(C)C)c2C)c1 | 636
50 | Cc1cccc(CNC(=O)C2(C)Oc3cccnc3N(C(C)C)C2=O)c1 (stereo not drawn) | 1120
51 | Cc1c(S(=O)(=O)N2CCCC(C)C2)c(C)n(C)c1C(=O)Nc1ccccc1F (stereo not drawn) | 895
52 | O[C@@H]1CCCCC1N1CCC(c2ccccc2)CC1 (stereo partly drawn) | 702
53 | CN(C)CCN(C)CCc1ccc(Cl)c(Cl)c1 | 639
54 | CC(C)c1ccc(NC(=O)C2CCCN2S(=O)(=O)c2cc3c(cc2Cl)NC(=O)CO3)cc1 (stereo not drawn) | 948
55 | CCOCCCNC(=O)c1cc2sc(CC)cc2n1C | 960
56 | CCOc1cc(CNC(=O)C2CCCN(C(=O)c3cc(C)cc(C)c3)C2)cc(OCC)c1OCC (stereo not drawn) | 968
57 | Cc1ccn2cc(-c3ccc(NS(=O)(=O)c4ccccc4F)cc3)nc2n1 | 636
58 | CCCNC(=O)C1CCN(c2ccc(SCC(=O)NCc3ccccc3)nn2)CC1 | 645
59 | Cc1cccc(C(=O)NCc2nn(C)c3ccccc23)c1 | 814
60 | COc1ccc(-c2nnc(-c3cccc(S(=O)(=O)N4CCOCC4)c3)o2)cc1OC | 813
61 | C=CCn1c(C(=O)N2CCN(c3ccccn3)CC2)cc2cc(S(=O)(=O)N(C)C)ccc21 | 649
62 | CCCNc1nc(N2CCOCC2)nc(N2CC3CC(C2)c2cccc(=O)n2C3)n1 (stereo not drawn) | 562
63 | O=S(=O)(Cc1cccc(Cl)c1)NCC1CCN(Cc2ccco2)CC1 | 573
64 | CCC1CCCCN1CCCNC(=O)CCCn1c(=O)c2cccn2c2ccccc21 (stereo not drawn) | 641
65 | NC(=O)c1cnc(-c2ccc(Cl)cc2)n(CC(=O)N2CCCc3ccccc32)c1=O | 986
66 | Cc1csc(NC(=O)C2CC(=O)N(c3n[nH]c4cccc(F)c34)C2)n1 (stereo not drawn) | 664

Row | SMILES | RP-LC retention time [s]
67 | CCOC(=O)C1CCN(CC(=O)Nc2oc3ccccc3c(=O)c2-c2ccccc2)CC1 | 586
68 | CCn1c(=O)oc2cc(-c3noc(-c4cccc5[nH]ccc45)n3)ccc21 | 1000
69 | CSc1nc2cc(S(=O)(=O)N3CCCCC3)ccc2s1 | 1100
70 | Cc1ccc(CNC(=O)N2CC(c3nc(C)no3)C3(CCOCC3)C2)cc1 (stereo not drawn) | 731
71 | CC(C)CCNC(=O)C1CCCN(c2cc(=O)n(C)c(=O)n2C)C1 (stereo not drawn) | 677
72 | O=C(NCc1ccc(F)cc1)N1CCCC1c1nc(-c2ccccc2)no1 (stereo not drawn) | 914
73 | Cc1nn(C)c(C)c1S(=O)(=O)N1CCCC(Cc2nncn2-c2ccccc2)C1 (stereo not drawn) | 604
74 | COc1ccc(Cl)cc1NC(=O)NC1CCN(c2ccccc2)C1=O (stereo not drawn) | 873
75 | Cc1ccc(N2CC(c3noc(-c4ccccc4OC(F)(F)F)n3)CC2=O)cc1 (stereo not drawn) | 819
76 | CN(C)S(=O)(=O)c1ccc(C(=O)N2CCC3(CC2)OCCS3)cc1 | 724
77 | Cc1nnc2ccc(NC(=O)Nc3ccccc3F)cn12 | 658
78 | CC(Cc1ccco1)NC(=O)CC1CCN(C(=O)c2ccc3nc(-c4ccccc4)oc3c2)CC1 (stereo not drawn) | 830
79 | CCc1cc(=O)n(CC(=O)Nc2ccc(Cl)cc2)c(-c2ccccc2)n1 | 1190
80 | O=C(NCC1CCCO1)C1CCN(Cc2cc3ccccc3n2Cc2ccccc2Cl)CC1 (stereo not drawn) | 731
81 | COC(=O)c1cc2ccsc2n1CC(=O)Nc1ccc(F)c(Cl)c1 | 1010
82 | Cc1cc(C)cc(NC(=O)C2CCCN2S(=O)(=O)c2cc3c(cc2C)NC(=O)CO3)c1 (stereo not drawn) | 815
83 | Cc1ccc(-c2[nH]ncc2CN2CCC3(CC2)CC(O)CCO3)cc1 (stereo not drawn) | 588
84 | CC1=C(c2ccc(Cl)cc2)S(=O)(=O)N=C1N1CCCN(C(=O)c2ccccn2)CC1 | 765
85 | CC(C)CC(=O)N1CCC(COc2ccc(C(=O)NC(C)C)cc2)CC1 | 801
86 | CCCn1cc(C2=CCN(S(=O)(=O)c3ccc(OC)c(Cl)c3)CC2)c2cccnc21 | 921
87 | O=C(NCCc1csc(-c2ccc(F)cc2)n1)c1ccco1 | 868
88 | CC(=O)N1CCc2cc(-c3ccc(C(=O)N4CCN(c5ncccn5)CC4)cc3)ccc21 | 771
